One data set relates to HT-29. Kind of data set: cells. As for the experimental part: (§1) This form of the assay employs 96 well cell culture microplates of 9 mm diameter (Faircloth, 1988; Mosmann, 1983). Most of the cell lines are obtained from American Type Culture Collection (ATCC) derived from different human cancer types.
(§2) Cells are maintained in RPMI 1640 10% FBS, supplemented with 0.1 g/l penicillin and 0.1 g/l streptomycin sulfate and then incubated at 37° C., 5% CO2 and 98% humidity. For the experiments, cells were harvested from subconfluent cultures using trypsin and resuspended in fresh medium before plating.
(§3) Cells are seeded in 96 well microtiter plates, at 5×10^3 cells per well in aliquots of 195 μl medium, and they are allowed to attach to the plate surface by growing in drug free medium for 18 hours. Afterward, samples are added in aliquots of 5 μl in a ranging from 10 to 10^−8 μg/ml, dissolved in DMSO/EtOH/PBS (0.5:0.5:99). After 48 hours exposure, the antitumor effect are measured by the SRB methodology: cells are fixed by adding 50 μl of cold 50% (wt/vol) trichloroacetic acid (TCA) and incubating for 60 minutes at 4° C. Plates are washed with deionized water and dried. One hundred μl of SRB solution (0.4% wt/vol in 1% acetic acid) is added to each microtiter well and incubated for 10 minutes at room temperature. Unbound SRB is removed by washing with 1% acetic acid. Plates are air dried and bound stain is solubilzed with Tris buffer. Optical densities are read on a automated spectrophotometric plate reader at a single wavelength of 490 nm.
(§4) The values for mean +/− SD of data from triplicate wells are calculated. Some parameters for cellular responses can be calculated: GI=growth inhibition, TGI=total growth inhibition (cytostatic effect) and LC=cell killing (cytotoxic effect).

The test system of another data set is A-549. In words: cells. As for the experimental part:
as §1, §2, §3, §4

The next data set concerns K-562. Kind of data set: Inhibition of cells growth by colorimetric assay (SRB). Particulars: Homo sapiens, K562, 48 h, read-out: GI50 K562. The method, then:
as §1, §2, §3, §4

The next data set concerns LNCaP. Described as above. Particulars: Homo sapiens, LNCaP, 48 h, read-out: GI50 LNCAP. As for the experimental part:
as §1, §2, §3, §4

[1] abbreviates: Homo sapiens, HT-29, 48 h, read-out: HT29 GI50.
The mark [2] stands for this setting: Homo sapiens, HT-29, 48 h, read-out: HT29 LC50.
Setting [3] is: Homo sapiens, HT-29, 48 h, read-out: HT29 TGI.
Setting [4] is: Homo sapiens, A549, 48 h, read-out: A549 GI50.
[5] abbreviates: Homo sapiens, A549, 48 h, read-out: A549 LC50.
Where [6] appears, read: Homo sapiens, A549, 48 h, read-out: A549 TGI.
Where [7] appears, read: Homo sapiens, HT-29, 48 h, read-out: GI50 HT29.
[8] abbreviates: Homo sapiens, HT-29, 48 h, read-out: LC50 HT29.
The mark [9] stands for this setting: Homo sapiens, HT-29, 48 h, read-out: TGI HT29.
The mark [10] stands for this setting: Homo sapiens, A549, 48 h, read-out: GI50 A549.
Where [11] appears, read: Homo sapiens, A549, 48 h, read-out: LC50 A549.
[12] abbreviates: Homo sapiens, A549, 48 h, read-out: TGI A549.

SMILES strings stand for the structures. Where two headings read alike, the source gives them in different places.

`COCCOCOc1c(OC)c(C)cc2c1[C@@H]1C3CC4(O)C(=O)C(C)=C5OCOC5=C4[C@H](CNC(=O)[C@H](CSCC4c5ccccc5-c5ccccc54)NC(=O)OC(C)(C)C)N3[C@@H](C#N)[C@H](C2)N1C` (some centres unmarked) [compound 72]: the GI50 is 1.04 µM with HT-29 (setting [1]) and 0.0519 µM in the data set on A-549 (setting [4]). For the same compound, the values for the CC50 with HT-29 (setting [2]) and with A-549 (setting [5]) were 5.19 µM and 4.15 µM, respectively. Moreover, the figures for the IC (TGI) in the data set with HT-29 (setting [3]) and in the data set on A-549 (setting [6]) were 1.04 µM and 0.104 µM, respectively.

For `C=CCN1[C@@H]2c3c(cc(C)c(OC)c3OCOCCOC)C[C@H]1[C@H](C#N)N1C2CC2(O)C(=O)C(C)=C3OCOC3=C2[C@@H]1CO` (some centres unmarked) [compound 9], the 50% growth inhibitory concentration (GI50) with HT-29 (setting [7]) and in the data set with A-549 (setting [10]) was 16.4 µM in each case. In addition, the CC50 in the data set on HT-29 (setting [8]) and in the data set on A-549 (setting [11]) was 16.4 µM in each case. Further, the IC (TGI) with HT-29 (setting [9]) and in the data set with A-549 (setting [12]) was 16.4 µM throughout.

In the case of `C=CCOc1c(C)c2c(c3c1CC1[C@H]4c5c(cc(C)c(OC)c5O)C[C@@H]([C@H](C#N)N1[C@H]3CO[Si](c1ccccc1)(c1ccccc1)C(C)(C)C)N4C)OCO2` (some centres unmarked) [compound 3], the GI50 stood at 4.01 µM in the data set on HT-29 (setting [7]) and 4.18 µM in the data set on A-549 (setting [10]). The CC50 with HT-29 (setting [8]) and in the data set on A-549 (setting [11]) was 13.2 µM throughout. Besides, the values for the IC (TGI) in the data set on HT-29 (setting [9]) and in the data set on A-549 (setting [12]) were 12.3 µM and 13 µM, respectively.

On to `C=CCOc1c(C)c2c(c3c1CC1[C@H]4c5c(cc(C)c(OC)c5O)C[C@@H]([C@H](C#N)N1[C@H]3CNC(=O)[C@H](CSCC1c3ccccc3-c3ccccc31)NC(=O)OC(C)(C)C)N4C)OCO2` (some centres unmarked) [compound 69], for which the GI50 turned out to be 1.11 µM with HT-29 (setting [1]) and 5.57 µM with A-549 (setting [4]). The values for the CC50 in the data set with HT-29 (setting [2]) and in the data set with A-549 (setting [5]) were 11.1 µM and 55.7 µM, respectively. For the same compound, the IC (TGI) in the data set with HT-29 (setting [3]) is 1.11 µM; in the data set with A-549 (setting [6]), 22.3 µM.

For `C=CCN1[C@@H]2c3c(cc(C)c(OC)c3OCOCCOC)C[C@H]1[C@H](C#N)N1C2[C@@H]2SC[C@@H](NC(=O)OC(C)(C)C)C(=O)OC[C@H]1c1c3c(c(C)c(OC(C)=O)c12)OCO3` (some centres unmarked) [compound 11], the GI50 was found to be 4.76 µM in the data set on K-562 and 5.84 µM in the data set with LNCaP.

As for `COc1cc2c(cc1O)CCN[C@]21C[S+]([O-])[C@@H]2c3c(OC(C)=O)c(C)c4c(c3[C@H](COC1=O)N1C2C2c3c(cc(C)c(OC)c3O)C[C@@H]([C@@H]1C#N)N2C)OCO4` (some centres unmarked) [compound 17], the values for the GI50 with HT-29 (setting [7]) and in the data set with A-549 (setting [10]) were 0.0391 µM and 0.0229 µM, respectively. Besides, the CC50 in the data set with HT-29 (setting [8]) came to 12.7 µM; in the data set with A-549 (setting [11]), 0.117 µM. Further, the IC (TGI) is 0.086 µM in the data set with HT-29 (setting [9]) and 0.0521 µM in the data set on A-549 (setting [12]).

As for `C=CCOc1c(C)c2c(c3c1CC1[C@H]4c5c(cc(C)c(OC)c5OCOCCOC)C[C@@H]([C@H](C#N)N1[C@H]3CNC(=O)[C@H](CSCC1c3ccccc3-c3ccccc31)NC(=O)OC(C)(C)C)N4C)OCO2` (some centres unmarked) [compound 70], the figures for the GI50 with HT-29 (setting [1]) and in the data set on A-549 (setting [4]) were 10.1 µM and 5.06 µM, respectively. For the same compound, the CC50 in the data set with HT-29 (setting [2]) and in the data set with A-549 (setting [5]) was 50.6 µM in each case. The IC (TGI) with HT-29 (setting [3]) came out at 10.1 µM; in the data set with A-549 (setting [6]), 50.6 µM.

For the compound `COc1c(C)cc2c(c1O)[C@@H]1C3[C@@H]4SCC(N)C(=O)OC[C@@H](c5c6c(c(C)c(OC(C)=O)c54)OCO6)N3[C@@H](C#N)C(C2)N1C` (some centres unmarked) [compound 18], the GI50 with HT-29 (setting [7]) was 0.0804 µM; in the data set on A-549 (setting [10]), 0.161 µM. Also, the results for the CC50 in the data set with HT-29 (setting [8]) and with A-549 (setting [11]) were 80.4 µM and 8.04 µM, respectively. The IC (TGI) in the data set with HT-29 (setting [9]) and in the data set on A-549 (setting [12]) was 0.643 µM in each case.

As for `COCCOCOc1c(OC)c(C)cc2c1[C@H]1N[C@@H](C2)[C@H](C#N)N2C1Cc1c(O)c(C)c3c(c1[C@@H]2CO[Si](c1ccccc1)(c1ccccc1)C(C)(C)C)OCO3` (some centres unmarked) [compound 6], the GI50 came to 12.5 µM in the data set with HT-29 (setting [7]) and 6.65 µM with A-549 (setting [10]). For the same compound, the CC50 with HT-29 (setting [8]) and in the data set with A-549 (setting [11]) was 12.6 µM in each case. The IC (TGI) with HT-29 (setting [9]) and in the data set on A-549 (setting [12]) was 12.6 µM in each case.

For `COCCOCOc1c(OC)c(C)cc2c1[C@H]1N[C@@H](C2)[C@H](C#N)N2C1CC1(O)C(=O)C(C)=C3OCOC3=C1[C@@H]2CO[Si](c1ccccc1)(c1ccccc1)C(C)(C)C` (some centres unmarked) [compound 7], the “TGI HT29” value in the data set with HT-29 (HT29, SRB, 48 hours exposure) came to 2.40E−06 Molar. For the same compound, the GI50 was determined as 0.918 µM in the data set on HT-29 (read-out: GI50 HT29, HT29, SRB, 48 hours exposure) and 1.87 µM in the data set with A-549 (read-out: GI50 A549, A549, SRB, 48 hours exposure). Also, the CC50 was 5.46 µM with HT-29 (read-out: LC50 HT29, HT29, SRB, 48 hours exposure) and 6.61 µM in the data set on A-549 (read-out: LC50 A549, A549, SRB, 48 hours exposure). Further, in the data set with A-549 (A549, SRB, 48 hours exposure), the “TGI A549” value was found to be 3.51E−06 Molar.

With `C=CCOc1c(C)c2c(c3c1CC1[C@H]4c5c(cc(C)c(OC)c5OCOCCOC)C[C@@H]([C@H](C#N)N1[C@H]3CO[Si](c1ccccc1)(c1ccccc1)C(C)(C)C)N4C)OCO2` (some centres unmarked) [compound 4], the GI50 with HT-29 (setting [7]) is 0.591 µM; in the data set with A-549 (setting [10]), 2.36 µM. The CC50 in the data set on HT-29 (setting [8]) and with A-549 (setting [11]) was 11.8 µM in each case. Further, the results for the IC (TGI) with HT-29 (setting [9]) and in the data set on A-549 (setting [12]) were 1.18 µM and 8.27 µM, respectively.

With `C=CCOc1c(C)c2c(c3c1CC1[C@@H]4N[C@@H](Cc5cc(C)c(OC)c(OCOCCOC)c54)[C@H](C#N)N1[C@H]3CO[Si](c1ccccc1)(c1ccccc1)C(C)(C)C)OCO2` (some centres unmarked) [compound 5], the GI50 with HT-29 (setting [7]) worked out at 0.481 µM; with A-549 (setting [10]), 0.721 µM. The values for the CC50 with HT-29 (setting [8]) and in the data set on A-549 (setting [11]) were 6.01 µM and 8.41 µM, respectively. Further, the IC (TGI) in the data set on HT-29 (setting [9]) came to 1.2 µM; with A-549 (setting [12]), 2.4 µM.

As for `C=CCN1[C@@H]2c3c(cc(C)c(OC)c3OCOCCOC)C[C@H]1[C@H](C#N)N1C2CC2(O)C(=O)C(C)=C3OCOC3=C2[C@@H]1CO[Si](c1ccccc1)(c1ccccc1)C(C)(C)C` (some centres unmarked) [compound 8], the results for the GI50 in the data set on HT-29 (setting [7]) and with A-549 (setting [10]) were 7.82 µM and 11.8 µM, respectively. Besides, the CC50 in the data set on HT-29 (setting [8]) and in the data set on A-549 (setting [11]) was 11.8 µM throughout. Further, the IC (TGI) with HT-29 (setting [9]) and in the data set with A-549 (setting [12]) was 11.8 µM throughout.

The GI50 is the concentration giving 50% growth inhibition.

The values are drawn from US7767659B2, “Synthesis of naturally occurring ecteinascidins and related compounds” (Pharma Mar, S.A., priority 2002, dated 2010).
